Test results taken from ChEMBL document CHEMBL1128951, “6-(4-Phenyl-benzyloxy-methyl) guvacine. Synthesis, GABA uptake inhibitor and muscarinic properties” (Bioorg Med Chem Lett, 1996).

How the values were obtained:
[1] = biological target: T1, Muscarinic acetylcholine receptor M2 (Homo sapiens) (UniProt P08172); assay: Compound was evaluated for binding affinity by displacement of [3H]NMS from muscarinic M2 receptor at concentration 100 nM.
T1 sequence (whole entry): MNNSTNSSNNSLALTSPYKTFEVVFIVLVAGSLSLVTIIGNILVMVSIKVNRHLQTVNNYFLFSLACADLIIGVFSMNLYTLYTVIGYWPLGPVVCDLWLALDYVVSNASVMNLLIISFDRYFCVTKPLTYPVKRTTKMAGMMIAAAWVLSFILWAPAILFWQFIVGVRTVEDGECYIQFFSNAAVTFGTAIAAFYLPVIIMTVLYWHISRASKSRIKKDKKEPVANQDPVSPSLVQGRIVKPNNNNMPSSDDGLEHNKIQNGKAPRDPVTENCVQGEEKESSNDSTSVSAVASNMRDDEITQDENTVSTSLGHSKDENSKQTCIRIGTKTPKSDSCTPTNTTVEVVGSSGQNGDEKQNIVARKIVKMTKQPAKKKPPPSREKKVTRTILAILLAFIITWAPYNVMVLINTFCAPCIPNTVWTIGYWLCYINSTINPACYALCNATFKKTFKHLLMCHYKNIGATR

[2] = biological target: T2, Muscarinic acetylcholine receptor M1 (Homo sapiens) (UniProt P11229); assay: Compound was evaluated for binding affinity by displacement of [3H]pirenzepine from muscarinic M1 receptor at concentration 100 nM.
T2 sequence (whole entry): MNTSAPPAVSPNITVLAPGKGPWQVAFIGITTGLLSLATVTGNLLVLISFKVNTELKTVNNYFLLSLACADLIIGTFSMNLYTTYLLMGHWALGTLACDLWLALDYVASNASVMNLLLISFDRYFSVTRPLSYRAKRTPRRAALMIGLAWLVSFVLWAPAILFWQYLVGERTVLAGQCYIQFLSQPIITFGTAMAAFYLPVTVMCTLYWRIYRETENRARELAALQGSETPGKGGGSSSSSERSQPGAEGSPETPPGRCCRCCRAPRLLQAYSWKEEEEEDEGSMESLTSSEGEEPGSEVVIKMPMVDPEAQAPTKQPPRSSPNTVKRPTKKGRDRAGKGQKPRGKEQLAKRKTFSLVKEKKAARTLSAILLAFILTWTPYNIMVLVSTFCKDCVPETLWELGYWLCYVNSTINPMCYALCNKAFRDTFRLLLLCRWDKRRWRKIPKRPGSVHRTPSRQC

[3] = In vitro inhibitory activity against gamma-aminobutyric acid (GABA) uptake; assay type: functional

Compound | inhibition [1] [%] | inhibition [2] [%] | IC50 [3] [nM]
O=C(O)C1=CCC(COCc2ccc(-c3ccccc3)cc2)NC1 (stereo unspecified) | 59 | 57 | 
O=C(O)C1=CCC(CCC(c2ccccc2)c2ccccc2)NC1 (stereo unspecified) |  |  | 100
CCOC(=O)C1=CCC(COCc2ccc(-c3ccccc3)cc2)NC1 (stereo unspecified) | 14 | 12 | 
O=C(O)C1=CCCN(CCC=C(c2ccccc2)c2ccccc2)C1 |  |  | 210
